Like-named read-outs stand apart in the source and are kept apart here.
How the values were obtained:
[1] = tested on: Cladosporium cucumerinum; experiment: Spore germination test; type: cell-based; details: CC, 48 hours
Outline: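 Compound in acetone mixed into water agar at 40, 10, 2.5 and 1 ppm; plates seeded with spore suspension and incubated 48 hours at 24 °C. Percentage germinated spores counted and converted into a germination rating.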

[2] = tested on: Helminthosporium oryzae; experiment: Mycelial growth test; details: Bipolaris oryzae, 72 h
Experimental: HO = Helminthosporium oryzae
Aliquots of previously prepared solutions of active ingredient in acetone were added to tubes containing 20 ml of sterile, melted potato dextrose agar that had been cooled to 50° C. to provide mixtures of 40, 20, 10, 5 and 2.5 ppm. The tubes were shaken to ensure thorough mixing of the chemical with the agar, and the mixture poured into petri dishes having 4 quadrants to solidify. Each quadrant was inoculated with a 4 mm diameter disc of agar containing mycelium of the test fungi and incubated at 25° C. for 72 hours during which the samples were alternately exposed to light for 12 hours and to darkness for 12 hours. Growth was measured at the end of the incubation period by measuring the diameter of each fungus colony. Two measurements of the diameter, perpendicular to each other, were taken and the values averaged. Data are reported as percent inhibition (%I) by the following formula: [formula] Captan and chlorothalonil were used as standards for comparison.

[3] = read-out: Percent Fungus Growth Inhibition, HO, 5 ppm, 72 hours
[4] = read-out: Percent Fungus Growth Inhibition, HO, 10 ppm, 72 hours
[5] = read-out: Percent Fungus Growth Inhibition, HO, 20 ppm, 72 hours
[6] = read-out: Percent Fungus Growth Inhibition, HO, 40 ppm, 72 hours
[7] = read-out: Percent Fungus Growth Inhibition

Compound	Spore Germination Rating ([1]; 1.0 ppm)	Spore Germination Rating ([1]; 2.5 ppm)	Spore Germination Rating ([1]; 10 ppm)	Spore Germination Rating ([1]; 40 ppm)	inhibition at 5 ppm [2, 3] [%]	inhibition at 10 ppm [2, 4] [%]	inhibition at 20 ppm [2, 5] [%]	inhibition at 40 ppm [2, 6] [%]	inhibition at 5 ppm [2, 7] [%]	inhibition at 10 ppm [2, 7] [%]	inhibition at 20 ppm [2, 7] [%]	inhibition at 40 ppm [2, 7] [%]
O=c1c(Cl)nsnc1Oc1cccc(Cl)c1Cl [Compound 19, 3-chloro-5-(2,3-dichlorophenoxy)-4H--1,2,6-thiadiazin-4-one]	2 (40-60)	0 (0-10)	0 (0-10)	0 (0-10)	100	90	100	100	–	–	–	–
Cc1ccc(Oc2nsnc(Cl)c2=O)cc1 [Compound 3, 3-chloro-5-(4-methylphenoxy)-4H--1,2,6-thiadiazin-4-one]	4 (80-100)	4 (80-100)	0 (0-10)	0 (0-10)	55	64	100	100	–	–	–	–
O=c1c(Cl)nsnc1Oc1cccc(C(F)(F)F)c1 [Compound 44, 3-chloro-5-[(3-trifluoromethyl)phenoxy]-4H--1,2,6-thiadiazin-4-one]	1 (10-40)	0 (0-10)	0 (0-10)	0 (0-10)	100	100	100	100	–	–	–	–
CC(=O)c1ccc(Oc2nsnc(Cl)c2=O)cc1 [Compound 47, 3-(4-acetylphenoxy)-5-chloro-4H--1,2,6-thiadiazin-4-one]	0 (0-10)	0 (0-10)	0 (0-10)	0 (0-10)	75	88	100	100	–	–	–	–
CCOC(=O)c1ccc(Oc2nsnc(Cl)c2=O)cc1 [Compound 7, 3-chloro-5-(4-ethoxycarbonylphenoxy)-4H--1,2,6-thiadiazin-4-one]	0 (0-10)	0 (0-10)	0 (0-10)	1 (10-40)	48	43	100	100	–	–	–	–
CC(=O)Nc1ccccc1Oc1nsnc(Cl)c1=O [Compound 43, 3-[(2-acetylamino)-phenoxy]-5-chloro-4H--1,2,6-thiadiazin-4-one]	4 (80-100)	4 (80-100)	2 (40-60)	0 (0-10)	61	70	65	91	–	–	–	–
O=c1c(Cl)nsnc1Oc1c(Cl)cccc1Cl [Compound 18, 3-chloro-5-(2,6-dichlorophenoxy)-4H--1,2,6-thiadiazin-4-one]	4 (80-100)	0 (0-10)	0 (0-10)	0 (0-10)	86	86	100	100	–	–	–	–
Cc1ccc(Oc2nsnc(Cl)c2=O)c(C)c1 [Compound 23, 3-chloro-5-(2,4-dimethylphenoxy)-4H--1,2,6-thiadiazin-4-one]	4 (80-100)	1 (10-40)	0 (0-10)	0 (0-10)	100	100	100	100	–	–	–	–
CC(C)(C)c1ccc(Oc2nsnc(Cl)c2=O)cc1 [Compound 4, 3-chloro-5-(4-tert-butylphnoxy)-4H--1,2,6-thiadiazin-4-one]	4 (80-100)	4 (80-100)	0 (0-10)	0 (0-10)	0	0	24	33	–	–	–	–
N#Cc1ccc(Oc2nsnc(Cl)c2=O)cc1 [Compound 10, 3-chloro-5-(4-cyanophenoxy)-4H--1,2,6-thiadiazin-4-one]	0 (0-10)	0 (0-10)	0 (0-10)	0 (0-10)	57	52	100	100	–	–	–	–
O=c1c(Cl)nsnc1Oc1ccc(Cl)c(Cl)c1 [Compound 16, 3-chloro-5-(3,4-dichlorophenoxy)-4H--1,2,6-thiadiazin-4-one]	0 (0-10)	0 (0-10)	0 (0-10)	0 (0-10)	64	55	55	82	–	–	–	–
Cc1cc(Oc2nsnc(Cl)c2=O)cc(C)c1Cl [Compound 59, 3-chloro-5-[(4-chloro-3,5-dimethyl)phenoxy]-4H--1,2,6-thiadiazin-4-one]	1 (10-40)	0 (0-10)	0 (0-10)	0 (0-10)	100	100	100	100	–	–	–	–
CC(=O)Nc1ccc(Oc2nsnc(Cl)c2=O)cc1 [Compound 8, 5-(4-acetylaminophenoxy)-3-chloro-4H--1,2,6-thiadiazin-4-one]	4 (80-100)	3 (60-80)	0 (0-10)	0 (0-10)	24	33	0	81	–	–	–	–
CCCCOc1ccc(Oc2nsnc(Cl)c2=O)cc1 [Compound 6, 3-chloro-5-(4-n-butoxyphenoxy)-4H--1,2,6-thiadiazin-4-one]	0 (0-10)	0 (0-10)	0 (0-10)	0 (0-10)	0	0	0	48	–	–	–	–
CNC(=O)Nc1ccc(Oc2nsnc(Cl)c2=O)cc1 [Compound 28, 3-chloro-5-[4-(3-methylureido)-phenoxy]-4H--1,2,6-thiadiazin-4-one]	2 (40-60)	2 (40-60)	1 (10-40)	0 (0-10)	29	29	21	64	–	–	–	–
O=c1c(Cl)nsnc1Oc1ccc(Cl)cc1Cl [Compound 17, 3-chloro-5-(2,4-dichlorophenoxy)-4H--1,2,6-thiadiazin-4-one]	4 (80-100)	0 (0-10)	0 (0-10)	0 (0-10)	100	100	100	100	–	–	–	–
O=c1c(Cl)nsnc1Oc1c(Cl)cc(Cl)cc1Cl [Compound 30, 3-chloro-5-(2,4,6-trichlorophenoxy)-4H--1,2,6-thiadiazin-4-one]	0 (0-10)	0 (0-10)	0 (0-10)	0 (0-10)	59	100	100	100	–	–	–	–
CS(=O)(=O)c1ccc(Oc2nsnc(Cl)c2=O)cc1 [Compound 41, 3-chloro-5-[(4-methylsulfonyl)phenoxy]-4H--1,2,6-thiadiazin-4-one]	0 (0-10)	0 (0-10)	0 (0-10)	0 (0-10)	40	60	33	60	–	–	–	–
COc1ccc(Oc2nsnc(Cl)c2=O)cc1 [Compound 5, 3-chloro-5-(4-methoxyphenoxy)4H--1,2,6-thiadiazin-4-one]	4 (80-100)	4 (80-100)	0 (0-10)	0 (0-10)	50	64	73	100	–	–	–	–
Cc1ccc(Cl)c(Oc2nsnc(Cl)c2=O)c1 [Compound 56, 3-chloro-5-[(2-chloro-5-methyl)phenoxy]-4H--1,2,6-thiadiazin-4-one]	4 (80-100)	0 (0-10)	0 (0-10)	0 (0-10)	67	100	100	100	–	–	–	–
N#CCc1ccc(Oc2nsnc(Cl)c2=O)cc1 [Compound 46, 3-chloro-5-[(4-cyanomethyl)-phenoxy]4H--1,2,6-thiadiazin-4-one]	4 (80-100)	0 (0-10)	0 (0-10)	0 (0-10)	67	89	100	100	–	–	–	–
O=C(Nc1ccccc1)Oc1ccc(Oc2nsnc(Cl)c2=O)cc1 [Compound 37, 3-chloro-5-[4-(phenylaminocarbonyloxy)phenoxy]-4H-1,2,6,-thiadiazin-4-one]	0 (0-10)	1 (10-40)	0 (0-10)	0 (0-10)	–	–	–	–	27	13	60	47
O=C(Nc1ccccc1)Nc1ccc(Oc2nsnc(Cl)c2=O)cc1 [Compound 29, 3-chloro-5-[4-(3-phenylureido)-phenoxy]-4H--1,2,6-thiadiazin-4-one]	2 (40-60)	2 (40-60)	2 (40-60)	1 (10-40)	0	0	14	0	–	–	–	–
Cc1cccc(C)c1Oc1nsnc(Cl)c1=O [Compound 24, 3-chloro-5-(2,6-dimethylphenoxy)-4H--1,2,6-thiadiazin-4-one]	0 (0-10)	0 (0-10)	0 (0-10)	0 (0-10)	86	100	100	100	–	–	–	–
O=C(O)c1ccc(Oc2nsnc(Cl)c2=O)cc1 [Compound 50, 3-(4-carboxyphenoxy)-5-chloro-4H--1,2,6-thiadiazin-4-one]	3 (60-80)	3 (60-80)	3 (60-80)	2 (40-60)	75	38	100	100	–	–	–	–
